Data on 18 compounds can be found in patent US11814391B2, “Macrocyclic compounds for the treatment of medical disorders” (Achillion Pharmaceuticals, Inc., priority 2018, dated 2023).

Human Factor D, sequence (P00746 26-253): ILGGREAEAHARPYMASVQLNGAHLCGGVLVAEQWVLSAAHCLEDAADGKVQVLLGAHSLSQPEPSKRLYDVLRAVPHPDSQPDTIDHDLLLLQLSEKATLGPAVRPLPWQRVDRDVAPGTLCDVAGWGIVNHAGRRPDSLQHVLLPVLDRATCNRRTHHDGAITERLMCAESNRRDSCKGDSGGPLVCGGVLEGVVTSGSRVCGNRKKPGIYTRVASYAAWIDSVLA

The target in the test is Human Factor D (Homo sapiens (Human), UniProt P00746). The test can be described thus: Human Factor D assay. The format is biochemical. Particulars: Human Factor D 80 nM, substrate Z-L-Lys-SBzl, A405; read-out: IC50 (Stars). The protocol:
The assay of Example 3 was used to determine the IC50's of the compounds. Other standard factor D inhibition assays are also available.
Human Factor D (purified from human serum, Complement Technology, Inc.) at 80 nM final concentration is incubated with test compound at various concentrations for 5 min at room temperature in 50 mM Tris, 1M NaCl, pH 7.5. A synthetic substrate Z-L-Lys-SBzI and DTNB (Ellman's reagent) are added to final concentrations of 100 μM each. Absorbance at 405 nm (A405) is recorded at 30 second intervals for 30 min using a microplate spectrophotometer. IC50 values are calculated by nonlinear regression of complement Factor D reaction rates as a function of test compound concentration.
Broadly, the IC50 is the concentration at which inhibition is half-maximal. Take `CC(=O)c1nn2c3c(cc(-c4cnc(C)nc4)cc13)CCCCCCC(=O)NC[C@@]13C[C@@H](C(=O)Nc4nc(OC(F)(F)F)ccc4C)N(C(=O)C2)[C@@H]1C3` [Compound 1, (4^1R,4^3S,4^5R)-1^3-acetyl-N-(3-methyl-6-(trifluoromethoxy)pyridin-2-yl)-1^5-(2-methylpyrimidin-5-yl)-3,7-dioxo-1^1H-4^2,6-diaza-1(1,7)-indazola-4(2,5)-bicyclo[3.1.0]hexanacyclotridecaphane-4^3-carboxamide]: the IC50 is less than 1 µM.

In the case of `CC(=O)c1nn2c3c(cc(-c4cnc(C)nc4)cc13)CCCCCCC(=O)NC[C@@]13C[C@@H](C(=O)Nc4nc(Br)ccc4CN4CC(F)C4)N(C(=O)C2)[C@@H]1C3` [Compound 2, (4^1R,4^3S,4^5R)-1^3-acetyl-N-(6-bromo-3-((3-fluoroazetidin-1-yl)methyl)pyridin-2-yl)-1^5-(2-methylpyrimidin-5-yl)-3,7-dioxo-1^1H-4^2,6-diaza-1(1,7)-indazola-4(2,5)-bicyclo[3.1.0]hexanacyclotridecaphane-4^3-carboxamide], the concentration for half-maximal inhibition (IC50) was less than 1 µM.

`CC(=O)c1nn2c3c(cc(N4CCCC4)cc13)CCCCCCC(=O)NC[C@@]13C[C@@H](C(=O)Nc4nc(C(F)(F)F)ccc4C)N(C(=O)C2)[C@@H]1C3` [Compound 3, (4^1R,4^3S,4^5R)-1^3-acetyl-N-(3-methyl-6-(trifluoromethyl)pyridin-2-yl)-3,7-dioxo-1^5-(pyrrolidin-l-yl)-1^1H-4^2,6-diaza-1(1,7)-indazola-4(2,5)-bicyclo[3.1.0]hexanacyclotridecaphane-4^3-carboxamide]: the concentration for half-maximal inhibition (IC50) is less than 1 µM.

On to `CC(=O)c1nn2c3c(cc(C4CC4)cc13)CCCCCCC(=O)NC[C@@]13C[C@@H](C(=O)Nc4nc(C(F)(F)F)ccc4C)N(C(=O)C2)[C@@H]1C3` [Compound 4, (4^1R,4^3S,4^5R)-1^3-acetyl-1^5-cyclopropyl-N-(3-methyl-6-(trifluoromethyl)pyridin-2-yl)-3,7-dioxo-1^1H-4^2,6-diaza-1(1,7)-indazola-4(2,5)-bicyclo[3.1.0]hexanacyclotridecaphane-4^3-carboxamide], for which the IC50 is less than 1 µM.

In the case of `CC(=O)c1nn2c3c(cc(-c4nnc(C)o4)cc13)CCCCCCC(=O)NC[C@@]13C[C@@H](C(=O)Nc4nc(C(F)(F)F)ccc4C)N(C(=O)C2)[C@@H]1C3` [Compound 5, (4^1R,4^3S,4^5R)-1^3-acetyl-1^5-(5-methyl-1,3,4-oxadiazol-2-yl)-N-(3-methyl-6-(trifluoromethyl)pyridin-2-yl)-3,7-dioxo-1^1H-4^2,6-diaza-1(1,7)-indazola-4(2,5)-bicyclo[3.1.0]hexanacyclotridecaphane-4^3-carboxamide], the half-maximal inhibitory concentration (IC50) was less than 1 µM.

Consider `COc1cc2c3c(c1)c(C(C)=O)nn3CC(=O)N1[C@H](C(=O)Nc3nc(C(F)(F)F)ccc3C)C[C@@]3(CNC(=O)CCCCCC2)C[C@@H]13` [Compound 6, (4^1R,4^3S,4^5R)-1^3-acetyl-1^5-methoxy-N-(3-methyl-6-(trifluoromethyl)pyridin-2-yl)-3,7-dioxo-1^1H-4^2,6-diaza-1(1,7)-indazola-4(2,5)-bicyclo[3.1.0]hexanacyclotridecaphane-4^3-carboxamide], for which the IC50 was less than 1 µM.

As to `CC(=O)c1nn2c3c(cc(Oc4ncc(C)cn4)cc13)CCCCCC(=O)NC[C@@]13C[C@@H](C(=O)Nc4nc(C(F)(F)F)ccc4C)N(C(=O)C2)[C@@H]1C3` [Compound 7, (4^1R,4^3S,4^5R)-1^3-acetyl-N-(3-methyl-6-(trifluoromethyl)pyridin-2-yl)-1^5-((5-methylpyrimidin-2-yl)oxy)-3,7-dioxo-1^1H-4^2,6-diaza-1(1,7)-indazola-4(2,5)-bicyclo[3.1.0]hexanacyclododecaphane-4^3-carboxamide], the concentration for half-maximal inhibition (IC50) was less than 1 µM.

For the compound `CC(=O)c1nn2c3c(cc(-c4cnc(C)nc4)cc13)CCCCC[C@@H](C)C(=O)NC[C@@]13C[C@@H](C(=O)Nc4nc(C(F)(F)F)ccc4C)N(C(=O)C2)[C@@H]1C3` [Compound 8, (4^1R,4^3S,4^5R,8R)-1^3-acetyl-8-methyl-N-(3-methyl-6-(trifluoromethyl)pyridin-2-yl)-1^5-(2-methylpyrimidin-5-yl)-3,7-dioxo-1^1H-4^2,6-diaza-1(1,7)-indazola-4(2,5)-bicyclo[3.1.0]hexanacyclotridecaphane-4^3-carboxamide], the IC50 is less than 1 µM.

Take `CC(=O)c1nn2c3c(cc(-c4cnc(C)nc4)cc13)CCCCC[C@@H](C)C(=O)NC[C@@]13C[C@@H](C(=O)Nc4cc(F)cc(Br)n4)N(C(=O)C2)[C@@H]1C3` [Compound 9, (4^1R,4^3S,4^5R,8R)-1^3-acetyl-N-(6-bromo-4-fluoropyridin-2-yl)-8-methyl-1^5-(2-methylpyrimidin-5-yl)-3,7-dioxo-1^1H-4^2,6-diaza-1(1,7)-indazola-4(2,5)-bicyclo[3.1.0]hexanacyclotridecaphane-4^3-carboxamide]: the half-inhibitory concentration (IC50) was less than 1 µM.

For `CC(=O)c1nn2c3c(cc(-c4cnc(C)nc4)cc13)CCCCCC(C)(C)C(=O)NC[C@@]13C[C@@H](C(=O)Nc4nc(C(F)(F)F)ccc4C)N(C(=O)C2)[C@@H]1C3` [Compound 10, (4^1R,4^3S,4^5R)-1^3-acetyl-8,8-dimethyl-N-(3-methyl-6-(trifluoromethyl)pyridin-2-yl)-1^5-(2-methylpyrimidin-5-yl)-3,7-dioxo-1^1H-4^2,6-diaza-1(1,7)-indazola-4(2,5)-bicyclo[3.1.0]hexanacyclotridecaphane-4^3-carboxamide], the half-maximal inhibitory concentration (IC50) was less than 1 µM.

With `CC(=O)c1nn2c3c(cc(-c4cnc(C)nc4)cc13)CCCCCCC(=O)NC[C@@]13C[C@@H](C(=O)Nc4nc(C5CC5)ccc4C)N(C(=O)C2)[C@@H]1C3` [Compound 11, (4^1R,4^3S,45^R)-1^3-acetyl-N-(6-cyclopropyl-3-methylpyridin-2-yl)-15-(2-methylpyrimidin-5-yl)-3,7-dioxo-1^1H-4^2,6-diaza-1(1,7)-indazola-4(2,5)-bicyclo[3.1.0]hexanacyclotridecaphane-4^3-carboxamide], the IC50 is less than 1 µM.

With `CC(=O)c1nn(CC(=O)N(C)[C@H]2CCCCCCCCCc3ccc(Br)nc3NC2=O)c2ccc(-c3cnc(C)nc3)cc12` [Compound 12, (S)-2-(3-acetyl-5-(2-methylpyrimidin-5-yl)-1H-indazol-1-yl)-N-(2-bromo-15-oxo-5,6,7,8,9,10,11,12,13,14, 15,16-dodecahydropyrido[2,3-b][1]azacyclotetradecin-14-yl)-N-methylacetamide], the IC50 fell in the range of 1 to 10 µM.

For `CC(=O)c1nn2c3c(cc(-c4cnc(C)nc4)cc13)C/C=C/CCCC(=O)N(C)C[C@@]13C[C@@H](C(=O)Nc4cc(F)cc(Br)n4)N(C(=O)C2)[C@@H]1C3` [Compound 13, (4^1R,4^3S,4^5R,E)-1^3-acetyl-N-(6-bromo-4-fluoropyridin-2-yl)-6-methyl-1^5-(2-methylpyrimidin-5-yl)-3,7-dioxo-1^1H-4^2,6-diaza-1(1,7)-indazola-4(2,5)-bicyclo[3.1.0]hexanacyclotridecaphan-11-ene-4^3-carboxamide], the half-maximal inhibitory concentration (IC50) is less than 1 µM.

With `CC(=O)c1nn2c3c(cc(-c4cnc(C)nc4)cc13)CCCCCCC(=O)N(C)C[C@@]13C[C@@H](C(=O)Nc4cc(F)cc(Br)n4)N(C(=O)C2)[C@@H]1C3` [Compound 14, (4^1R,4^3S,4^5R)-1^3-acetyl-N-(6-bromo-4-fluoropyridin-2-yl)-6-methyl-1^5-(2-methylpyrimidin-5-yl)-3,7-dioxo-1^1H-4^2,6-diaza-1(1,7)-indazola-4(2,5)-bicyclo[3.1.0]hexanacyclotridecaphane-4^3-carboxamide], the IC50 was less than 1 µM.

For `CC(=O)c1nn2c3c(cc(N)cc13)CCCCCCC(=O)NC[C@@]13C[C@@H](C(=O)Nc4nc(C(F)(F)F)ccc4C)N(C(=O)C2)[C@@H]1C3` [Compound 15, (4^1R,4^3S,4^5R)-1^3-acetyl-1^5-amino-N-(3-methyl-6-(trifluoromethyl)pyridin-2-yl)-3,7-dioxo-1^1H-4^2,6-diaza-1(1,7)-indazola-4(2,5)-bicyclo[3.1.0]hexanacyclotridecaphane-4^3-carboxamide], the half-maximal inhibitory concentration (IC50) is less than 1 µM.

As for `CC(=O)c1nn2c3c(cc(-c4cnc(C)nc4)cc13)CCCCC[C@@H](C)C(=O)NC[C@@]13C[C@@H](C(=O)Nc4ccc(F)c(Br)n4)N(C(=O)C2)[C@@H]1C3` [Compound 16, (4^1R,4^3S,4^5R,8R)-1^3-acetyl-N-(6-bromo-5-fluoropyridin-2-yl)-8-methyl-1^5-(2-methylpyrimidin-5-yl)-3,7-dioxo-1^1H-4^2,6-diaza-1(1,7)-indazola-4(2,5)-bicyclo[3.1.0]hexanacyclotridecaphane-4^3-carboxamide], the IC50 was less than 1 µM.

`CC(=O)c1nn2c3c(cc(OCC(C)C)cc13)CCCCCCC(=O)NC[C@@]13C[C@@H](C(=O)Nc4nc(C(F)(F)F)ccc4C)N(C(=O)C2)[C@@H]1C3` [Compound 17, (4^1R,4^3S,4^5R)-1^3-acetyl-1^5-isobutoxy-N-(3-methyl-6-(trifluoromethyl)pyridin-2-yl)-3,7-dioxo-1^1H-4^2,6-diaza-1(1,7)-indazola-4(2,5)-bicyclo[3.1.0]hexanacyclotridecaphane-4^3-carboxamide]: the concentration for half-maximal inhibition (IC50) was less than 1 µM.

With `CC(=O)c1nn2c3c(cc(C)cc13)CCCCCCC(=O)NC[C@@]13C[C@@H](C(=O)Nc4nc(C(F)(F)F)ccc4C)N(C(=O)C2)[C@@H]1C3` [Compound 18, (4^1R,4^3S,4^5R)-1^3-acetyl-1^5-methyl-N-(3-methyl-6-(trifluoromethyl)pyridin-2-yl)-3,7-dioxo-1^1H-4^2,6-diaza-1(1,7)-indazola-4(2,5)-bicyclo[3.1.0]hexanacyclotridecaphane-4^3-carboxamide], the IC50 is less than 1 µM.
